Measured values as given in article PMC11651181, “Discovery of 6α-Thiazolylcarboxamidonaltrexamine Derivative (NTZ) as a Potent and Central Nervous System Penetrant Opioid Receptor Modulator with Drug-like Properties for Potential Treatment of Opioid Use Disorder” (ACS Pharmacology & Translational Science, 2024).
“Also recorded” adds a separate entry of the source. Counter-ions that a name gives are not always drawn. Like-named read-outs stand apart in the source and are kept apart here.

Tests used:
MOR [1] = target: T1, MOR (Mus musculus, UniProt P42866); assay: MOR [35S]GTPγS functional assay; format: biochemical; settings: for Emax: read-out: MOR [35S]GTPγS Binding %Emax of DAMGO, relative to 3 μM DAMGO, mean ± SEM
T1 construct: expressed in transfected cells; host or cells: CHO (MOR-CHO), membrane preparation
Protocol: (§1) The [^35S]GTPγS functional assay was used to assess the efficacy of compounds at the MOR, KOR, and DOR. In this assay, 10 μg of MOR-CHO/KOR-CHO/DOR-CHO membrane protein was incubated in 500 μL of TME with 100 mM NaCl, 20 μM GDP, 0.1 nM [^35S]GTPγS, and varying concentrations of the compound for 1.5 h in a 30 °C water bath. Protein concentration was adjusted using the Bradford protein assay. […] After incubation, bound radioactivity was separated by filtration through GF/B glass fiber filters and measured by liquid scintillation counting. All assays were performed in duplicate and repeated at least three times. Net stimulated [35S]GTPγS binding was calculated as agonist-stimulated minus basal binding.

Swiss Webster mice [2] = assay: Warm-water tail immersion assay, agonism (acute antinociception); settings: single dose of 10 mg/kg s.c., n = 6, vs 10 mg/kg morphine
μ opioid receptor (MOR) = target: T2, μ opioid receptor (MOR) (Mus musculus, UniProt P42866); assay: Competitive radioligand binding assay, MOR
T2 construct: expressed in transfected cells; host or cells: CHO (mMOR-CHO), membrane preparation
Protocol: (§2) The competition binding assay was performed using monoclonal mouse opioid receptors expressed in CHO cell lines (monoclonal human δ opioid receptor was used for the DOR assay).
(§3) The bound radioligand was separated using a Brandel harvester. Specific binding to the MOR, KOR, and DOR was calculated by subtracting the binding observed in the presence of 5 μM naltrexone, U50488, and SNC80, respectively, from the binding in their absence. Relative affinity values (IC50) were determined by fitting displacement binding inhibition data to a nonlinear regression model using GraphPad Prism 8.0 (GraphPad Software, San Diego, CA). The % inhibition was calculated using the formula: % inhibition = 100% - [(binding with the tested compound - nonspecific binding)/specific binding] × 100%. The IC50 values were converted to Ki values using the Cheng-Prusoff equation: Ki = IC50/ [1 + ([L*]/KD)], where [L*] is the concentration of the radioligand and KD is the KD of the radioligand.[68]

κ opioid receptor (KOR) = target: T3, κ opioid receptor (KOR) (Mus musculus, UniProt P33534); assay: Competitive radioligand binding assay, KOR; settings: for Selectivity κ/μ: ratio of Ki values
T3 construct: expressed in transfected cells; host or cells: CHO (mKOR-CHO), membrane preparation
Protocol: as §2, §3

δ opioid receptor (DOR) = target: T4, δ opioid receptor (DOR) (Homo sapiens, UniProt P41143); assay: Competitive radioligand binding assay, DOR
T4 construct: expressed in transfected cells; host or cells: CHO (hDOR-CHO), membrane preparation
Protocol: as §2, §3

GI-tract motility = test system: GI-tract motility; design: method as in PMID 22683223; settings: cited from earlier work
morphine-pelleted mice = assay: In vivo opioid withdrawal studies in morphine-pelleted mice; design: species or system mouse; settings: for Jumps, mean count / Paw tremors, mean count / Wet dog shake, mean count: 5 mg/kg s.c., counted over 20 min; for Precipitated withdrawal symptoms, in words: s.c.
Protocol: Swiss Webster mice (six males per group, weighing 25–35 g and aged 6–8 weeks) were used. Following a previously established protocol,[20] a 75 mg morphine pellet was implanted subcutaneously into the back of each mouse, and they were allowed to recover in their home cages. Prior to testing, the mice were habituated for 30 min in an open-topped, clear Plexiglas observation chamber (26 × 26 × 26 cm^3) with lines marking the floor into quadrants. […]. Withdrawal symptoms began within 3 min of antagonist administration. Escape jumps, paw tremors, and wet dog shakes were recorded by counting their occurrences over a 20 min period for each mouse. Results are expressed as the mean ± SEM.

Swiss Webster mice [3] = settings: cited from earlier work; for %MPE in single dose antagonism assay: in the presence of morphine; for AD50 (95% CL) for counteracting morphine-induced antinociception: mice
MOR [4] = target: T1, MOR; assay: MOR calcium flux assay in Gαqi5-transfected mMOR-CHO cells; format: cell-based
Swiss Webster mice [5] = test system: Swiss Webster mice; design: method as in PMID 35255685; settings: warm-water tail immersion; cited from earlier work
DOR = target: T5, DOR (Homo sapiens, UniProt P41143); assay: DOR [35S]GTPγS functional assay; format: biochemical
T5 construct: expressed in transfected cells; host or cells: CHO (DOR-CHO), membrane preparation
Protocol: as §1

KOR = target: T6, KOR (Mus musculus, UniProt P33534); assay: KOR [35S]GTPγS functional assay; format: biochemical
T6 construct: expressed in transfected cells; host or cells: CHO (KOR-CHO), membrane preparation
Protocol: as §1

Swiss Webster mice [6] = assay: Warm-water tail immersion assay, antagonism of morphine-induced antinociception

Row | Compound | EC50 (MOR [1]) [nM] | Emax (MOR [1]) [%] | Ki (μ opioid receptor (MOR)) [nM] | Ki (κ opioid receptor (KOR)) [nM] | Selectivity κ/μ (κ opioid receptor (KOR)) | Ki (δ opioid receptor (DOR)) [nM] | Jumps, mean count (morphine-pelleted mice) | Paw tremors, mean count (morphine-pelleted mice) | Wet dog shake, mean count (morphine-pelleted mice) | Precipitated withdrawal symptoms, in words (morphine-pelleted mice) | %MPE in single dose antagonism assay (Swiss Webster mice [3]) [%] | AD50 (95% CL) for counteracting morphine-induced antinociception (Swiss Webster mice [3]) | IC50 (MOR [4]) [nM] | further results
1 | O=C(N[C@H]1CC[C@@]2(O)[C@H]3Cc4ccc(O)c5c4[C@@]2(CCN3CC2CC2)[C@H]1O5)c1ccns1 [Compound 1, 17-Cyclopropylmethyl-3,14β-dihydroxy-4,5α-epoxy-6α-(5′-isothiazolylcarboxamido)-morphinan hydrochloride] | 4.93 ± 0.8 | 15.6 ± 1.11 | 0.51 ± 0.08 | 1.81 ± 0.18 | 4 | 14.3 ± 0.66 | – | – | – | – | – | – | – | Antinociceptive effect (MPE) compared to morphine, in words (Swiss Webster mice [2]): significantly lower than that of morphine; Selectivity δ/μ (δ opioid receptor (DOR); ratio of Ki values): 28
2 | O=C(N[C@@H]1CC[C@@]2(O)[C@H]3Cc4ccc(O)c5c4[C@@]2(CCN3CC2CC2)[C@H]1O5)c1ccncc1 [NAP, 17-Cyclopropylmethyl-3,14β-Dihydroxy-4,5α-Epoxy-6β-[(4′-Pyridyl)Carboxamido]Morphinan] | – | – | – | – | – | – | – | – | – | – | – | – | – | ED50 in gastrointestinal (GI)-tract motility assay (GI-tract motility): 8.8 µg/kg
3 | O=C(N[C@H]1CC[C@@]2(O)[C@H]3Cc4ccc(O)c5c4[C@@]2(CCN3CC2CC2)[C@H]1O5)c1cccs1 [NAT, reference compound] | – | – | – | – | – | – | 45.8 | 29.2 | 14.5 | Significant withdrawal symptoms | 2.1 ± 1.7 | 0.42 (0.21–0.82) mg/kg | 42.1 ± 4.51 | %MPE in single dose agonism assay (Swiss Webster mice [5]): 15.2 ± 8.8%
4 | O=C(N[C@@H]1CC[C@@]2(O)[C@H]3Cc4ccc(O)c5c4[C@@]2(CCN3CC2CC2)[C@H]1O5)c1nccs1 [Compound 14, 17-Cyclopropylmethyl-3,14β-dihydroxy-4,5α-epoxy-6β-(2′-thiazolylcarboxamido)-morphinan hydrochloride] | 0.56 ± 0.2 | 6.06 ± 0.52 | 0.3 ± 0.04 | 0.75 ± 0.08 | 2 | 117 ± 23.6 | 58.8 | 45.7 | 17.7 | fewer wet dog shakes and paw tremors at all testing doses than 1 mg/kg NLX | – | – | 12.4 ± 1.18 | EC50 (DOR): 44 ± 6.82 nM; Emax (DOR; relative to 3 μM SNC80, mean ± SEM, read-out: DOR [35S]GTPγS binding % Emax of SNC80): 25.9 ± 0.4%; EC50 (KOR): 9.67 ± 1.81 nM; Emax (KOR; relative to 3 μM U50488H, mean ± SEM, read-out: KOR [35S]GTPγS binding % Emax of U50488H): 39.8 ± 2.82%; Agonistic activity in increasing intracellular calcium, in words (MOR [4]; compared to full MOR agonist DAMGO): no apparent agonism; also recorded: none of them showed any significant agonistic activity; AD50 (95% CL) for counteracting morphine-induced antinociception (Swiss Webster mice [6]; mice, s.c., given 5 min before morphine): 0.23 (0.04–1.37) mg/kg; Antagonism of morphine's antinociception, in words (Swiss Webster mice [6]; single dose of 10 mg/kg s.c. in the presence of morphine (10 mg/kg), n = 6): significantly antagonized
5 | C=CCN1CC[C@]23c4c5ccc(O)c4O[C@H]2C(=O)CC[C@@]3(O)[C@H]1C5 [NLX, naloxone] | – | – | – | – | – | – | – | – | – | precipitated significant withdrawal symptoms | 2.9 ± 1.3 | 0.05 (0.03–0.09) mg/kg | – | –
